This passage reports IC50 results from patent publication US20240376091A1, “THIADIAZOLEAMIDE DERIVATIVES AND THEIR APPLICATIONS” (ZHEJIANG UNIVERSITY, priority 2021, published 2024).

The experiment deals with T1, AR (Homo sapiens, UniProt P10275, T878A).
T1 construct: into the androgen-dependent PCa cells (LNCaP); endogenous in cells; host or cells: LNCaP-ARR2PB-eGFP
T1 sequence (P10275 1-920 T878A): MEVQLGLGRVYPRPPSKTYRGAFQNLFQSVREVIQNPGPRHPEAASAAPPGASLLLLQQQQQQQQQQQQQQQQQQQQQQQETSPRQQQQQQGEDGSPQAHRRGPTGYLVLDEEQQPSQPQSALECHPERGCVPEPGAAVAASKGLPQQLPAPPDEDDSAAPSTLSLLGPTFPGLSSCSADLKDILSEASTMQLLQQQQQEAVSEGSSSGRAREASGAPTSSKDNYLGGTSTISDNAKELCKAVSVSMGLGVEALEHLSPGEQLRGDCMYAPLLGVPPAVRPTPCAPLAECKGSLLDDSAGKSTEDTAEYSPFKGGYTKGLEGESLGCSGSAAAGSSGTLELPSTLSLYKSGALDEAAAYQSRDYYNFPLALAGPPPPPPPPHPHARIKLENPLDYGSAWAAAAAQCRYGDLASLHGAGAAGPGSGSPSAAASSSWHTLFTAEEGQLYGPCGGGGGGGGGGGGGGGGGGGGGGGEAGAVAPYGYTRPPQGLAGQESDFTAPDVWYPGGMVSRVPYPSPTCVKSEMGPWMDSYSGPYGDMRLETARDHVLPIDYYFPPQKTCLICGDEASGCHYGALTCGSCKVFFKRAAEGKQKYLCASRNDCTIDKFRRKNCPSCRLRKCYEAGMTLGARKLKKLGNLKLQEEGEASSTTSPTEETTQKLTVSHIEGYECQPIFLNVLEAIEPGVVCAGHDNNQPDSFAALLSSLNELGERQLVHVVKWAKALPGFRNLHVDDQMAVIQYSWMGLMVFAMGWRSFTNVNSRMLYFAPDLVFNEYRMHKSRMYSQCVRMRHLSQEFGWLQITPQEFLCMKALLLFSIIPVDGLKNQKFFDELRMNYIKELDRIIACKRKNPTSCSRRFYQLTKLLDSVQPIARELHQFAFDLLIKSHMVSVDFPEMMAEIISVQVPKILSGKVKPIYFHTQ
The experiment is described as follows: AR transcriptional activity, LNCaP-ARR2PB-eGFP reporter cells. It counts as cell-based. The settings on record: read-out: IC50 AR transcriptional activities. The source says: Detection principles: We conducted a stable transfection of promoter ARR2PB known for its strong AR responsiveness, into the androgen-dependent PCa cells (LNCaP). The expression of enhanced green fluorescent protein (eGFP) is depending on the degree of activation of AR. Therefore, LNCaP-ARR2PB-eGFP cell line could quantitatively determine the AR antagonistic activities of the compounds by evaluating the expression of eGFP.
For `CC(O)(Cc1nsc(NC(=O)c2cc(-c3cccc(C#N)c3)co2)n1)C(F)(F)F` (stereo not shown) [Compound G-13, 4-(3-Cyanophenyl)-N-(3-(3,3,3-trifluoro-2-hydroxy-2-methylpropyl)-1,2,4-thiadiazol-5-yl) furan-2-carboxamide], the half-inhibitory concentration (IC50) was 22 µM.

On to `CCN(CC)Cc1nsc(NC(=O)c2cc(-c3cccc(OC)c3)sc2C)n1` [Compound C-50, N-(3-((diethylamino)methyl)-1,2,4-thiadiazol-5-yl)-5-(3-methoxyphenyl)-2-methyl-thiophene-3-carboxamide], for which the IC50 worked out at 12.5 µM.

Turning to `CC(Cc1nsc(NC(=O)c2cc(-c3cccc(OC(F)F)c3)oc2C(F)(F)F)n1)N1CCN(C)CC1` (stereo not shown) [Compound E-11, 5-(3-(Difluoromethoxy)phenyl)-N-(3-(2-(4-methylpiperazin-1-yl)propyl)-1,2,4-thiadiazol-5-yl)-2-(trifluoromethyl)furan-3-carboxamide], the IC50 was 0.97 µM.

Take `COc1cccc(-c2cc(C(=O)Nc3nc(CN(C)C)ns3)c(C)o2)c1` [Compound A-118, N-(3-((dimethylamino)methyl)-1,2,4-thiadiazol-5-yl)-5-(3-methoxyphenyl)-2-methylfuran-3-carboxamide]: the IC50 came to 2.23 µM.

For `CC(=O)Cc1nsc(NC(=O)c2cc(-c3ccccc3)oc2C)n1` [Compound A-5, 2-Methyl-N-(3-(2-oxopropyl)-1,2,4-thiadiazol-5-yl)-5-phenylfuran-3-carboxamide], the half-maximal inhibitory concentration (IC50) is 0.95 µM.

Consider `COc1cccc(-c2coc(C(=O)Nc3nc(CC(C)=C(F)F)ns3)c2)c1` [Compound G-15, N-(3-(3,3-difluoro-2-methylallyl)-1,2,4-thiadiazol-5-yl)-4-(3-methoxyphenyl)furan-2-carboxamide], for which the concentration for half-maximal inhibition (IC50) amounted to 24.1 µM.

In the case of `C/C(Cc1nsc(NC(=O)c2cc(-c3cccc(C(F)(F)F)c3)oc2C)n1)=N\O` [Compound A-69, N-(3-(2-(hydroxyimino)propyl)-1,2,4-thiadiazol-5-yl)-2-methyl-5-(3-(trifluoromethyl)phenyl)furan-3-carboxamide], the half-inhibitory concentration (IC50) came to 0.54 µM.

For `CC(Cc1nsc(NC(=O)c2coc(-c3cccc(OC(F)F)c3)c2)n1)N1CCN(C)CC1` (stereo not shown) [Compound B-19, 5-(3-(Difluoromethoxy)phenyl)-N-(3-(2-(4-methylpiperazin-1-yl)propyl)-1,2,4-thiadiazol-5-yl)furan-3-carboxamide], the IC50 was 59.3 µM.

As to `[2H]c1c(-c2cccc(OC(F)F)c2)oc(C)c1C(=O)Nc1nc(CC(C)=O)ns1` [Compound A-37, 5-(3-(Difluoromethoxy)phenyl)-2-methyl-N-(3-(2-oxopropyl)-1,2,4-thiadiazol-5-yl)furan-4-d-3-carboxamide], the IC50 stood at 0.03 µM.

For `CC(=O)Cc1nsc(NC(=O)c2cc(-c3cccc(OC(F)(F)F)c3)sc2C)n1` [Compound C-4, 2-Methyl-N-(3-(2-oxopropyl)-1,2,4-thiadiazol-5-yl)-5-(3-(trifluoromethoxy)phenyl)thiophene-3-carboxamide], the IC50 was 25.1 µM.

In the case of `CC(Cc1nsc(NC(=O)c2cc(-c3cccc(C(F)(F)F)c3)sc2C)n1)=C(F)F` [Compound C-30, N-(3-(3,3-difluoro-2-methylallyl)-1,2,4-thiadiazol-5-yl)-2-methyl-5-(3-(trifluoromethyl)phenyl)thiophene-3-carboxamide], the half-maximal inhibitory concentration (IC50) is 12.7 µM.

For `COc1cccc(-c2cc(C(=O)Nc3nc(CC(C)=O)ns3)cs2)c1` [Compound D-3, 5-(3-Methoxyphenyl)-N-(3-(2-oxopropyl)-1,2,4-thiadiazol-5-yl)thiophene-3-carboxamide], the half-inhibitory concentration (IC50) is 13.6 µM.

For `CCN(CC)Cc1nsc(NC(=O)c2csc(-c3cccc(OC)c3)c2)n1` [Compound D-50, N-(3-((diethylamino)methyl)-1,2,4-thiadiazol-5-yl)-5-(3-methoxyphenyl)thiophene-3-carboxamide], the 50% inhibitory concentration (IC50) was 15 µM.

In the case of `COc1cccc(-c2cc(C(=O)Nc3nc(CC(C)N4CCCCC4)ns3)c(C(F)(F)F)o2)c1` (stereo not shown) [Compound E-9, 5-(3-Methoxyphenyl)-N-(3-(2-(piperidin-1-yl)propyl)-1,2,4-thiadiazol-5-yl)-2-(trifluoro-methyl)furan-3-carboxamide], the half-maximal inhibitory concentration (IC50) is 5.29 µM.

As to `O=C(Nc1nc(CCl)ns1)c1coc(-c2cccc(C(F)(F)F)c2)c1` [Compound B-40, N-(3-(chloromethyl)-1,2,4-thiadiazol-5-yl)-5-(3-(trifluoromethyl)phenyl)furan-3-carboxamide], the concentration for half-maximal inhibition (IC50) turned out to be 12.3 µM.

`Cc1oc(-c2cccc(C(F)(F)F)c2)cc1C(=O)Nc1nc(CN2CCOCC2)ns1` [Compound A-110, 2-Methyl-N-(3-(morpholinomethyl)-1,2,4-thiadiazol-5-yl)-5-(3-(trifluoromethyl)phenyl) furan-3-carboxamide]: the IC50 was found to be 0.25 µM.

Take `CC(=O)Cc1nsc(NC(=O)c2cc(-c3cccc(C(N)=O)c3)oc2C)n1` [Compound A-28, 5-(3-Carbamoylphenyl)-2-methyl-N-(3-(2-oxopropyl)-1,2,4-thiadiazol-5-yl)furan-3-carboxamide]: the IC50 turned out to be 1.03 µM.

Consider `CC(=O)Cc1nsc(NC(=O)c2cc(-c3cccc(OC(F)(F)F)c3)oc2C(F)(F)F)n1` [Compound E-4, N-(3-(2-oxopropyl)-1,2,4-thiadiazol-5-yl)-5-(3-(trifluoromethoxy)phenyl)-2-(trifluoro-methyl)furan-3-carboxamide], for which the concentration for half-maximal inhibition (IC50) was found to be 0.55 µM.

With `Cc1oc(-c2cccc(OC(F)(F)F)c2)cc1C(=O)Nc1nc(CC(C)N(C)C)ns1` (stereo not shown) [Compound A-44, N-(3-(2-(dimethylamino)propyl)-1,2,4-thiadiazol-5-yl)-2-methyl-5-(3-(trifluoromethoxy)phenyl)furan-3-carboxamide], the IC50 stood at 0.06 µM.

Consider `Cc1oc(C(=O)Nc2nc(CN3CCOCC3)ns2)cc1-c1cccc(OC(F)(F)F)c1` [Compound F-27, 5-Methyl-N-(3-(morpholinomethyl)-1,2,4-thiadiazol-5-yl)-4-(3-(trifluoromethoxy)phenyl)furan-2-carboxamide], for which the half-inhibitory concentration (IC50) came out at 15.6 µM.

Take `COc1cccc(-c2cc(C(=O)Nc3nc(CC(C)N4CCCCC4)ns3)c(C)o2)c1` (stereo not shown) [Compound A-49, 5-(3-Methoxyphenyl)-2-methyl-N-(3-(2-(piperidin-1-yl)propyl)-1,2,4-thiadiazol-5-yl)furan-3-carboxamide]: the half-inhibitory concentration (IC50) is 0.21 µM.

Regarding `CC(Cc1nsc(NC(=O)c2csc(-c3cccc(C#N)c3)c2)n1)N1CCCC1` [Compound D-12, 5-(3-Cyanophenyl)-N-(3-(2-(pyrrolidin-1-yl)propyl)-1,2,4-thiadiazol-5-yl)thiophene-3-carboxamide], the concentration for half-maximal inhibition (IC50) stood at 13 µM.

`CC(Cc1nsc(NC(=O)c2csc(-c3cccc(C(F)(F)F)c3)c2)n1)=C(F)F` [Compound D-30, N-(3-(3,3-difluoro-2-methylallyl)-1,2,4-thiadiazol-5-yl)-5-(3-(trifluoromethyl)phenyl)thiophene-3-carboxamide]: the concentration for half-maximal inhibition (IC50) was 34.8 µM.

For the compound `Cc1oc(C(=O)Nc2nc(CC(C)O)ns2)cc1-c1cccc(C(F)(F)F)c1` (stereo not shown) [Compound F-11, N-(3-(2-hydroxypropyl)-1,2,4-thiadiazol-5-yl)-5-methyl-4-(3-(trifluoromethyl)phenyl) furan-2-carboxamide], the concentration for half-maximal inhibition (IC50) came out at 22.3 µM.

Consider `Cc1oc(C(=O)Nc2nc(CCl)ns2)cc1-c1cccc(C(F)(F)F)c1` [Compound F-19, N-(3-(chloromethyl)-1,2,4-thiadiazol-5-yl)-5-methyl-4-(3-(trifluoromethyl)phenyl)furan-2-carboxamide], for which the IC50 amounted to 19.1 µM.
